Assays:
Assay type in all cases: in vivo, human
subjects with PFIC = test: ItchRO(Obs) pruritus severity, MARCH-PFIC Phase 3 study; settings: for percentage of pruritus response (ItchRO(Obs) responders): Week 15 to Week 26
Experimental: The primary analysis was conducted in the intent-to-treat (ITT) population of subjects with documented biallelic mutations in ABCB11 (PFIC 2), based on standard-of-care genotyping (primary cohort criteria). Subjects with a predicted complete absence of bile salt excretion pump (BSEP) function based on the type of ABCB11 mutation (PFIC 2), as determined by a standard-of-care genotype, were excluded from the primary cohort and could enroll only in the supplemental cohort. Subjects with other PFIC subtypes (e.g., PFIC 1/3/4/5/6, or new PFIC mutation variants) or postsurgical subjects (e.g., after internal or external biliary diversion surgery or subjects with reversal of biliary diversion surgery) were enrolled in a separate supplemental cohort and evaluated as part of secondary and exploratory analyses.
Subjects in the primary cohort were randomized in a 1:1 ratio to receive maralixibat or placebo. Subjects in the supplemental cohort were randomized in a 1:1 ratio to receive maralixibat or placebo within the following subcohorts: a) PFIC 1; b) PFIC 3; c) all other supplemental cohort subjects. All subjects received study treatment in addition to standard-of-care therapy, including antipruritic concomitant treatment.
For subjects assigned to maralixibat, the Dose Escalation period consisted of the following weekly steps: Dose level 1, 150 μg/kg maralixibat BID for 1 week; Dose level 2, 300 μg/kg maralixibat BID for 1 week; Dose level 3, 450 μg/kg maralixibat BID for 1 week; Dose level 4, 600 μg/kg maralixibat BID for the remaining duration of the study.
Efficacy. Severity of pruritus was assessed using the Itch caregiver/patient reported outcome measure (ItchRO™) administered as a twice daily electronic diary. Caregivers for all subjects completed the Observer instrument: ItchRO(Obs). The ItchRO(Obs) was completed by the same caregiver for consistency, whenever possible. Only subjects ≥9 years of age at screening completed the patient instrument: ItchRO(Pt). […] Pruritus was assessed and recorded twice daily, via ItchRO, beginning with the day after the screening visit and every day throughout the duration of the study. The severity of pruritus was measured by the completion of the first question in the ItchRO(Obs) (how severe were your child's itch-related symptoms) or ItchRO(Pt) (how itchy did you feel). The frequency of pruritus was measured by completion of the third question in the ItchRO(Obs) (how much of the time was your child rubbing or scratching) or ItchRO(Pt) (how much of last night/today did feeling itchy make you rub or scratch). Caregivers and subjects rated the severity and frequency of pruritus using 5 choices to describe their itching condition. ItchRO(Pt) and ItchRO(Obs) have been previously described in Kamath, et al., “Development of a Novel Tool to Assess the Impact of Itching in Pediatric Cholestasis,” Patient, 11:69-82 (2018), which is hereby incorporated by reference in its entirety for all purposes.
For this study, the primary estimand is the improvement in pruritus measured as change from baseline in the average morning ItchRO(Obs) severity score in the maralixibat treatment group relative to the placebo group. The primary analysis on the primary efficacy endpoint was conducted in 1) participants with PFIC 2 who fulfill criteria for the primary cohort in the ITT population (non-truncated primary “B SEP cohort” or “Primary cohort” with N=31), 2) all PFIC participants (excluding the participants with prior history of surgery, heterozygous participants and unknown types, “All PFIC cohort” or “PFIC cohort” with N=64), and 3) all study participants cohort, including the participants with prior history of surgery, heterozygous participants and unknown types. A restricted maximum likelihood (REML)-based mixed-effects model for repeated measures […] was used as the primary analysis method. […]

[1] = Height and weight Z-score, MARCH-PFIC Phase 3 study; settings: BSEP deficiency group and PFIC group vs placebo
patients with PFIC = test: Bilirubin, MARCH-ON long-term extension; settings: MRX-MRX group; Baseline through Week 52
Text: (§1) Eighty-five patients from MARCH trial enrolled in MARCH-ON (Table 10, FIG. 29A). Forty-seven patients had received Maralixibat (MRX-MRX) and 38 had received placebo (PBO-MRX) during MARCH trial.
(§2) PFIC subtypes of patients included in the study were: non-truncated bile salt export pump (nt-B SEP, n=27), familial intrahepatic cholestasis-associated protein type 1 (F1C1, n=13); multidrug-resistance 3 protein (MDR3, n=9); tight junction protein 2 (TJP2, n=6); myosin VB (MYO5B, n=2); heterozygosis (n=2); truncated B SEP (t-B SEP, n=9); variant not found (n=8), fluctuating sBA (n=2); and surgery (n=7). Efficacy analyses included n=33 in the MRX-MRX group and n=24 in the PRO-MRX group. Subtypes nt-BSEP, F1C1, MDR3, TJP2, and MYO5B were included in the efficacy analyses. Baseline was defined as the start of maralixibat (MRX) treatment for each group.
Methods: Long-term maintenance of response was assessed for patients who were originally randomized to receive MRX in MARCH and continued with treatment in MARCH-ON (MRX-MRX group; n=33). MRX response was assessed for patients who received PBO in the MARCH study and switched to open-label MRX in MARCH-ON (PBO-MRX group; n=24). Assessments included: pruritus measured by 0-4 scale of ItchRO[Obs], sBA, bilirubin, and growth z-scores, as well as incidence of treatment-emergent adverse events(TEAEs). […]

[2] = Growth z-scores (height, weight), MARCH-ON long-term extension
Text: as §1, §2
Methods: Long-term maintenance of response was assessed for patients who were originally randomized to receive MRX in MARCH and continued with treatment in MARCH-ON (MRX-MRX group; n=33). MRX response was assessed for patients who received PBO in the MARCH study and switched to open-label MRX in MARCH-ON (PBO-MRX group; n=24). Assessments included: pruritus measured by 0-4 scale of ItchRO[Obs], sBA, bilirubin, and growth z-scores, as well as incidence of treatment-emergent adverse events(TEAEs). Baseline (BL) was defined as the start of MRX for each group.

[3] = All PFIC cohort, Weeks 15-26, FIG. 6B
[4] = BSEP deficiency cohort, FIG. 7A
[5] = BSEP deficiency cohort, FIG. 7B
[6] = BSEP deficiency cohort, FIG. 17A
[7] = BSEP deficiency cohort, Weeks 15-26, FIG. 6A
[8] = MRX-MRX group (n = 20), Baseline to Week 52
[9] = PBO-MRX group (n = 15), Baseline to Week 26

With CCCCC1(CCCC)CS(=O)(=O)c2ccc(N(C)C)cc2[C@@H](c2ccc(OCc3ccc(C[N+]45CCN(CC4)CC5)cc3)cc2)[C@H]1O [maralixibat, 1-(4-((4-((4R,5R)-3,3-dibutyl-7-(dimethylamino)-4-hydroxy-1,1-dioxido-2,3,4,5-tetrahydrobenzo[b]thiepin-5-yl)phenoxy)methyl)benzyl)-1,4-diazabicyclo[2.2.2]octan-1-ium] the “difference from the placebo group, evening ItchRO[Obs] score” value (subjects with PFIC; All PFIC cohort, FIG. 8A) was 1.157 point, the “reduction from baseline in pruritus evening ItchRO[Obs] score” value (subjects with PFIC; All PFIC cohort, FIG. 8A) was 1.8 points and the “difference from the placebo group, maximum daily ItchRO[Obs] score” value (subjects with PFIC; All PFIC cohort, FIG. 8B) was 1.198 point. The “reduction from baseline in maximum pruritus daily ItchRO[Obs] score” value (subjects with PFIC; All PFIC cohort, FIG. 8B) was 1.9 points, the “percentage of pruritus response (ItchRO(Obs) responders)” value (subjects with PFIC; All PFIC cohort, FIG. 14A) was 63.6% and the “difference from the placebo group, morning ItchRO[Obs] score” value (“difference … morning ItchRO[Obs] score” below) (subjects with PFIC; [3]) was 1.20 point. The “reduction from baseline in pruritus morning ItchRO[Obs] score” value (subjects with PFIC; [3]) was 1.8 points, the “median proportion of reported days with an ItchRO(Obs) score of 0-1” value (subjects with PFIC; All-PFIC (MRX n = 33), Weeks 15-26) was 95% and the “difference from the placebo group, evening ItchRO[Obs] score” value (subjects with PFIC; [4]) was 1.111 point. For the same compound, the “reduction from baseline in pruritus evening ItchRO[Obs] score” value (subjects with PFIC; [4]) was 1.7 points, the “difference from the placebo group, maximum daily ItchRO[Obs] score” value (subjects with PFIC; [5]) was 1.130 point and the “reduction from baseline in maximum pruritus daily ItchRO[Obs] score” value (subjects with PFIC; [5]) was 1.8 points. For the same compound, the “difference vs placebo in proportion of pruritus responders (assessments ≤1)” value (subjects with PFIC; BSEP deficiency cohort, FIG. 16A) was 0.344, the “difference vs placebo in proportion of pruritus responders (assessments ≤1 or decrease ≥1)” value (subjects with PFIC; [6]) was 0.398 and the “proportion of pruritus responders: proportion of assessments ≤1 or decrease ≥1” value (subjects with PFIC; [6]) was “over 0.7”. For the same compound, the “percentage of pruritus response (ItchRO(Obs) responders)” value (subjects with PFIC; BSEP deficiency cohort, FIG. 13A) was 57.1%, the “difference … morning ItchRO[Obs] score” value (subjects with PFIC; [7]) was 1.089 point and the “reduction from baseline in pruritus morning ItchRO[Obs] score” value (subjects with PFIC; [7]) was 1.7 points. For the same compound, the “proportion of pruritus responders: proportion of assessments ≤1” value (subjects with PFIC; BSEP deficiency cohort, morning and evening, FIG. 16A) was “over 0.6”, the “difference … morning ItchRO[Obs] score” value (subjects with PFIC; FIC1 (PFIC 1) cohort, FIG. 9A) was 1.136 point and the “reduction from baseline in pruritus morning ItchRO[Obs] score” value (subjects with PFIC; FIC1 (PFIC 1) cohort, FIG. 9A) was 1.4 points. For the same compound, the “improvements in pruritus (weekly ItchRO(Obs) score)” value (subjects with PFIC; FIC1, MDR3, TJP2, MYO5B cohorts, FIG. 33A-B) was “statistically significant and clinically meaningful improvements”, the “difference … morning ItchRO[Obs] score” value (subjects with PFIC; MDR3 (PFIC 3) cohort, FIG. 9B) was 0.594 point and the “reduction from baseline in pruritus morning ItchRO[Obs] score” value (subjects with PFIC; MDR3 (PFIC 3) cohort, FIG. 9B) was 1.8 points. For the same compound, the “difference vs placebo in proportion of pruritus responders (assessments ≤1)” value (subjects with PFIC; PFIC cohort, Baseline to Week 26, FIG. 16B, 27B) was 0.345, the “difference vs placebo in proportion of pruritus responders (assessments ≤1 or decrease ≥1)” value (subjects with PFIC; PFIC cohort, FIG. 17B) was 0.380 and the “proportion of pruritus responders: proportion of assessments ≤1 or decrease ≥1” value (subjects with PFIC; PFIC cohort, FIG. 17B) was “over 0.7”. For the same compound, the response to treatment (subjects with PFIC; PFIC patients post surgery (full population)) was “significant response”, the “improvements in pruritus severity” value (subjects with PFIC; full-study population, FIG. 35A) was “statistically significant and clinically meaningful improvements” and the improvements in pruritus (subjects with PFIC; patients with no-variant found, FIG. 35C) was “demonstrated improvements”. For the same compound, the “pruritus change in individual t-BSEP patients (morning ItchRO(Obs))” value (subjects with PFIC; t-BSEP (truncated PFIC2) patients, Baseline to Week 26, FIG. 41D) was “limited improvement in pruritus”, the “change of participant height Z-score over time” value ([1]; FIG. 24A-C) was “overall positive trend for increase” and the “change of participant weight Z-score over time” value ([1]; FIG. 25A-C) was “gained significantly more weight over time than placebo participants”. For the same compound, the “bilirubin, change from Baseline” value (patients with PFIC) was -2.64 mg/dL, the “Height Z-score, mean change from Baseline” value [2, 8] was “+0.54” and the “Weight Z-score, mean change from Baseline” value [2, 8] was “+0.44”. For the same compound, the “Height Z-score, mean change from Baseline” value [2, 9] was “+0.46” and the “Weight Z-score, mean change from Baseline” value [2, 9] was “+0.09”.

— patent publication US20240173317A1, “METHODS FOR TREATING PROGRESSIVE FAMILIAL INTRAHEPATIC CHOLESTASIS” (MIRUM PHARMACEUTICALS, INC., priority 2022, published 2024)
